Consider 36 molecules from ChEMBL document CHEMBL4765382, “Novel anilide and benzylamide derivatives of arylpiperazinylalkanoic acids as 5-HT/5-HT receptor antagonists and phosphodiesterase 4/7 inhibitors with procognitive and antidepressant activity” (Eur J Med Chem, 2020).

The source made the active and inactive calls. The rule behind the calls is not given here. Bounds are passed on as bounds.

Data set [1] deals with T1, 5-hydroxytryptamine receptor 1A (Homo sapiens, UniProt P08908).
T1 sequence (P08908 whole entry): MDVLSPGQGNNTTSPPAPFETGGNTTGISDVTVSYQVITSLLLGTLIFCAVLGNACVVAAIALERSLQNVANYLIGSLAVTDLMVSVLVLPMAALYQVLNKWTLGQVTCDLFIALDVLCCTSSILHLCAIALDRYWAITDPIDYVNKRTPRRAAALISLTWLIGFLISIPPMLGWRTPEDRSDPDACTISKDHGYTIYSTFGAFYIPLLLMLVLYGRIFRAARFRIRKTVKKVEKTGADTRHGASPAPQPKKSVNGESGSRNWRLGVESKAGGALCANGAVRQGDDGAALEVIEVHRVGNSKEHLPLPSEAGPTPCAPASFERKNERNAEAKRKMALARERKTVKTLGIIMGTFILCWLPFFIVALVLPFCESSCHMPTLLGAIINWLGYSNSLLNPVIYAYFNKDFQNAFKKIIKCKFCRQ
As to the kind of experiment: Binding affinity to 5HT-1A receptor (unknown origin).

For data set [2], the target named is T2, 5-hydroxytryptamine receptor 7 (Homo sapiens, UniProt P34969). As to the kind of experiment: Binding affinity to 5HT7 receptor (unknown origin).
T2 sequence (P34969 whole entry): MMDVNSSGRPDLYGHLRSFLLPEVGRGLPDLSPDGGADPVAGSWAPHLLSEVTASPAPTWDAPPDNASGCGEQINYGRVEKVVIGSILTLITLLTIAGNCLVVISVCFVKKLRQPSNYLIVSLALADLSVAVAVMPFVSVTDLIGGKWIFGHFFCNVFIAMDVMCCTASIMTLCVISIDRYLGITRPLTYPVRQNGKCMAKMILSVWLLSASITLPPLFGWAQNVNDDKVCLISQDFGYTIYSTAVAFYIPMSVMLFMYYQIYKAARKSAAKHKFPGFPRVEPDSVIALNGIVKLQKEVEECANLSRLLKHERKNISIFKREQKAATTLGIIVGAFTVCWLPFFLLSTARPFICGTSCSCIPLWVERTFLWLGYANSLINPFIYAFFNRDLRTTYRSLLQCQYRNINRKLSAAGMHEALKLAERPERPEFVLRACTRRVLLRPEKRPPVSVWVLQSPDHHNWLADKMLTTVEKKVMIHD
Data set [3] addresses T1, 5-hydroxytryptamine receptor 1A. Description: Displacement of [3H]8-OH-DPAT from human 5HT1A receptor expressed in HEK293 cells measured after 1 hr by microbeta counting method. The data set is classed as cell-based.
Data set [4] addresses T2, 5-hydroxytryptamine receptor 7. Description: Displacement of [3H]-5-CT from human 5HT7 receptor expressed in HEK293 cells measured after 1 hr by microbeta counting method. It counts as cell-based.
For data set [5], the target named is High affinity 3',5'-cyclic-AMP phosphodiesterase 7A (Homo sapiens, UniProt Q13946). As to the kind of experiment: Inhibition of recombinant human PDE7A expressed in Sf9 cells measured after 10 mins by luminescence based assay.
Sequence of High affinity 3',5'-cyclic-AMP phosphodiesterase 7A (Q13946 whole entry): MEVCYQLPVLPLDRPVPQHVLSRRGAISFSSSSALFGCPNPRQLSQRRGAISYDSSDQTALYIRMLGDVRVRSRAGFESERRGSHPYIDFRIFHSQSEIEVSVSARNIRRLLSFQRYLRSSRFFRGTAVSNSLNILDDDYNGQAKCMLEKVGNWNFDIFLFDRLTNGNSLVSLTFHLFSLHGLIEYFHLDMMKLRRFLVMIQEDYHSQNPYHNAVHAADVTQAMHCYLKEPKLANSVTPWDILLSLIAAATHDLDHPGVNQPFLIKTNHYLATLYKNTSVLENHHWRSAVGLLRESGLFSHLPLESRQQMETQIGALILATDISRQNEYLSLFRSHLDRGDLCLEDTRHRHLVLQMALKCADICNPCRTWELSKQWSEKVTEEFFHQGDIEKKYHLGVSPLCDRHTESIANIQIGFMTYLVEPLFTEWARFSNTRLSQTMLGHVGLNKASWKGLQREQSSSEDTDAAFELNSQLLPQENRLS
The target in data set [6] is 3',5'-cyclic-AMP phosphodiesterase 4B (Homo sapiens, UniProt Q07343). Description: Inhibition of recombinant human PDE4B expressed in Sf9 cells measured after 10 mins by luminescence based assay.
Sequence of 3',5'-cyclic-AMP phosphodiesterase 4B (Q07343 whole entry): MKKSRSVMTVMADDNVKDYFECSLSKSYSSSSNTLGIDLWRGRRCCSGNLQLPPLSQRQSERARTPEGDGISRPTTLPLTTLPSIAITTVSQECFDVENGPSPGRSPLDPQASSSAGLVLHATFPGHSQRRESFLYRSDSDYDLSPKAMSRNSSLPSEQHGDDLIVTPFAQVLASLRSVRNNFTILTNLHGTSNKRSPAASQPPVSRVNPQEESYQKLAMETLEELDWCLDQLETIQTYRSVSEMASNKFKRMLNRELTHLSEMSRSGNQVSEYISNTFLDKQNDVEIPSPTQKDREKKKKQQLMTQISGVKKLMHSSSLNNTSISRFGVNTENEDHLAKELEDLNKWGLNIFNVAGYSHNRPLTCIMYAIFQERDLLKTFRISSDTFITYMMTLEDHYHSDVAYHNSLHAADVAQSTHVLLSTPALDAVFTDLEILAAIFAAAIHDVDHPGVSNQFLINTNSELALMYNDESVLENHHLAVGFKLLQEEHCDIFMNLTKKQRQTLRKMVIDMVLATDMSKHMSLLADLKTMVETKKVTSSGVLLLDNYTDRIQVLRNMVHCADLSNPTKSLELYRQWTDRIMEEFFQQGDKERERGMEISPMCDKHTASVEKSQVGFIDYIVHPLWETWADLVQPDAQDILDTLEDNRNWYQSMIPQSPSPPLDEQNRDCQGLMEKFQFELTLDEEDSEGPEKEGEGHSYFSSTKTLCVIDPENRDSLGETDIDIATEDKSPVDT
Data set [7] has as its target T2, 5-hydroxytryptamine receptor 7. Description: Antagonist activity at recombinant human 5HT7 receptor expressed in CHO-K1 cells co-transfected with beta-lactamase reporter gene assessed as inhibition of serotonin-induced cAMP accumulation measured after 1 hr by LANCE TR-FRET assay. It counts as functional, cell-based. As to conditions: filed as antagonist.
Data set [8] can be described thus: Metabolic stability of the compound in rat liver microsomes assessed as parent compound remaining at 50 uM preincubated for 5 mins followed by incubation with NADPH regenerating system for 120 mins by LC/MS analysis. The settings on record: read-out: Stabilty. It counts as ADME, Microsome.
A short description of data set [9]: Effective permeability of the compound at 200 uM incubated for 5 hrs by PAMPA based UPLC/MS analysis. The data set is classed as ADME. As to conditions: read-out: Peff.
For data set [10], the target named is T2, 5-hydroxytryptamine receptor 7. Description: Agonist activity at recombinant human 5HT7 receptor expressed in CHO-K1 cells co-transfected with beta-lactamase reporter gene assessed as cAMP accumulation measured after 1 hr by LANCE TR-FRET assay. It counts as functional, cell-based.
Data set [11] in a line: Toxicity in Wistar rat assessed as total ambulations at 20 mg/kg, ip measured after 30 mins by open field test. The data set is classed as organism-based. As to conditions: in vivo, 0.5 h.
The nature of data set [12]: Toxicity in Wistar rat assessed as rearings at 20 mg/kg, ip measured after 30 mins by open field test. It counts as organism-based. As to conditions: in vivo, 0.5 h.
A short description of data set [13]: Toxicity in Wistar rat assessed as total distance travelled at 20 mg/kg, ip measured after 30 mins by open field test (reference value: 1897.3 +/-98.6 cm). The data set is classed as organism-based. The settings on record: in vivo, 0.5 h.
The subject of the next data set is Rattus norvegicus. Description: Antidepressant-like activity in Wistar rat assessed as reduction in immobility time at 20 mg/kg, ip measured after 30 mins by Forced swimming test. The data set is classed as functional. As to conditions: 0.5 h.
Data set [14] in a line: Toxicity in Wistar rat assessed as rearings at 3 to 10 mg/kg, ip measured after 60 mins by open field test. The data set is classed as organism-based. The settings on record: in vivo, 1 h.
Data set [15] in a line: Toxicity in Wistar rat assessed as total ambulations at 3 to 10 mg/kg, ip measured after 60 mins by open field test. The data set is classed as organism-based. The settings on record: in vivo, 1 h.

Consider `O=S(=O)(NCCCCN1CCN(c2nsc3ccccc23)CC1)c1c[nH]c2ncccc12`, for which the Ki was determined as 78 nM in [1] and 93 nM in data set [2].
Regarding `COc1ccccc1N1CCN(CCCC(=O)Nc2ccccc2O)CC1`, the values for the Ki in data set [3] and in data set [4] were 405 nM and 471 nM, respectively.
For the molecule `COc1ccccc1CNC(=O)CCCN1CCN(c2ccccc2OC)CC1`, the Ki in [3] worked out at 292 nM; in data set [4], 869 nM.
In [4], `COc1ccccc1N1CCN(CCCCCC(=O)Nc2cc(C(C)(C)C)ccc2O)CC1` had a Ki of 154 nM.
Take `COc1ccccc1N1CCN(CCCCC(=O)Nc2ccccc2C(N)=O)CC1`: the results for the Ki in data set [3] and in data set [4] were 82 nM and 1870 nM, respectively.
On to `COc1ccccc1N1CCN(CCCCCC(=O)Nc2ccc(C(C)(C)C)cc2)CC1`, for which, in data set [4], the Ki stood at 514 nM.
`COc1ccccc1N1CCN(CCCC(=O)Nc2ccc(C(C)C)cc2)CC1`: the figures for the Ki in [3] and in data set [4] were 150 nM and 954 nM, respectively.
`COc1ccccc1N1CCN(CCCCC(=O)NCc2ccccc2O)CC1` displayed a Ki in data set [4] of 343 nM.
With `COc1ccccc1N1CCN(CCCCC(=O)Nc2ccc(C(C)(C)C)cc2)CC1`, the IC50 was greater than 200 µM in data set [5] and 138 µM in data set [6]. Besides, the values for the Ki in data set [3] and in [4] were 21 nM and 496 nM, respectively.
In turn, `COc1ccccc1N1CCN(CCCC(=O)NCc2ccccc2O)CC1` came in with a Ki in data set [4] of 319 nM.
`CCC(C)c1ccc(NC(=O)CCCCCN2CCN(c3ccccc3OC)CC2)cc1` (centres undefined): the Ki in [3] was 69 nM; in [4], 260 nM.
For `COc1ccccc1CNC(=O)CCCCN1CCN(c2ccccc2OC)CC1`, in that order: 82 nM and 366 nM.
For `COc1ccccc1N1CCN(CCCCC(=O)Nc2cccc(C(C)(C)C)c2)CC1.Cl`, the IC50 was greater than 200 µM in data set [5] and 130 µM in [6]. Also, the figures for the Ki in [3] and in data set [4] were 16 nM and 75 nM, respectively. The Kb in data set [7] was 54 nM. The remaining at 2 h, 50 µM in data set [8] amounted to 23.8%. Further, the Papp at 5 h, 200 µM in data set [9] was determined as 4.8 ×10⁻⁶ cm/s. In data set [10], the outcome was inactive.
For `COc1ccccc1N1CCN(CCCCCC(=O)Nc2ccccc2O)CC1`, the Ki in [3] was 95 nM; in data set [4] it was 254 nM.
Take `COc1ccccc1N1CCN(CCCCC(=O)Nc2cccc(C(C)C)c2)CC1.Cl`: the results for the IC50 in [5] and in [6] were greater than 200 µM and 88.1 µM, respectively. For the same molecule, the remaining at 2 h, 50 µM in data set [8] was determined as 6.5%. Further, the Papp at 5 h, 200 µM in data set [9] amounted to 8.6 ×10⁻⁶ cm/s. In data set [4], the Ki was determined as 151 nM.
Take `COc1ccccc1N1CCN(CCCCC(=O)Nc2cc(C(C)(C)C)ccc2O)CC1`: the IC50 was greater than 200 µM in data set [5] and 36.5 µM in [6]. The Ki in [3] stood at 61 nM; in data set [4], 159 nM.
`COc1ccccc1N1CCN(CCCCCC(=O)Nc2cccc(C(C)(C)C)c2)CC1`: the figures for the Ki in data set [3] and in data set [4] were 53 nM and 190 nM, respectively.
Turning to `CN(C)CCC[C@@]1(c2ccc(F)cc2)OCc2cc(C#N)ccc21` [ESCITALOPRAM], the Activity entry is on record as “Non-Toxic” in [11], “Non-Toxic” in data set [12] and 2058.5 cm in data set [13]. Besides, the inhibition in vivo at 20 mg/kg with Rattus norvegicus was 49%.
As to `COc1ccccc1N1CCN(CCCC(=O)Nc2cccc(C(C)C)c2)CC1`, the Ki in data set [3] worked out at 187 nM; in data set [4], 157 nM.
For `CCC(C)c1ccc(NC(=O)CCCN2CCN(c3ccccc3OC)CC2)cc1` (centres undefined), in that order: 37 nM and 354 nM.
`COc1ccccc1N1CCN(CCCC(=O)Nc2cc(C(C)(C)C)ccc2O)CC1`: the IC50 in data set [5] amounted to 57 µM; in data set [6] it was 69 µM. The Ki in [4] is 328 nM.
On to `CCC(C)c1ccc(NC(=O)CCCCN2CCN(c3ccccc3OC)CC2)cc1` (centres undefined), for which the IC50 in data set [5] came to 126 µM; in data set [6], 169 µM. In addition, the Ki in data set [3] amounted to 14 nM; in data set [4], 323 nM.
For the molecule `COc1ccccc1N1CCN(CCCC(=O)Nc2cccc(C(C)(C)C)c2)CC1`, the Ki is 224 nM in [3] and 130 nM in data set [4].
With `COc1ccccc1N1CCN(CCCCCC(=O)Nc2ccc(C(=O)OC(C)(C)C)cc2)CC1`, the Ki was 125 nM in data set [3] and 799 nM in data set [4].
For `CCn1cc(C(=O)O)c(=O)c2cc(F)c(N3CCNCC3)cc21` [NORFLOXACIN], in data set [9], the Papp at 5 h, 200 µM worked out at 0.6 ×10⁻⁶ cm/s.
Regarding `COc1ccccc1N1CCN(CCCCCC(=O)NCc2ccccc2O)CC1`, the Ki in data set [3] turned out to be 70 nM; in [4], 289 nM.
`COc1ccccc1N1CCN(CCCCC(=O)Nc2cccc(C(=O)OC(C)(C)C)c2)CC1`: affinity in [4] was put at a Ki of 927 nM.
`COc1ccccc1N1CCN(CCCCC(=O)NCc2ccc(C(C)(C)C)cc2)CC1`: the Ki came to 138 nM in data set [3] and 391 nM in data set [4].
In the case of `COc1ccccc1N1CCN(CCCCC(=O)Nc2ccc(C(C)C)cc2)CC1.Cl`, the Activity entry in [14] and in data set [15] was “Non-Toxic” each time. Moreover, the IC50 in data set [5] is 151 µM; in data set [6], 80.4 µM. In addition, the remaining at 2 h, 50 µM in [8] is 90.1%. In addition, in [9], the Papp at 5 h, 200 µM came out at 10.5 ×10⁻⁶ cm/s.
As to `COc1ccccc1N1CCN(CCCC(=O)Nc2ccc(C(C)(C)C)cc2)CC1`, the IC50 is 27 µM in data set [5] and 96 µM in data set [6]. The affinity in data set [4] corresponds to a Ki of 1200 nM.
Regarding `COc1ccccc1CNC(=O)CCCCCN1CCN(c2ccccc2OC)CC1`, the figures for the inhibitory constant (Ki) in [3] and in [4] were 64 nM and 515 nM, respectively.
For `COc1ccccc1N1CCN(CCCC(=O)Nc2ccc(C(=O)OC(C)(C)C)cc2)CC1`, in that order: 287 nM and 3280 nM.
For `COc1ccccc1N1CCN(CCCC(=O)Nc2ccccc2C(N)=O)CC1`, in that order: 526 nM and 1140 nM.
For `COc1ccccc1N1CCN(CCCCC(=O)Nc2ccccc2O)CC1`, in that order: 31 nM and 300 nM.
As to `COc1ccccc1N1CCN(CCCCCC(=O)Nc2ccc(C(C)C)cc2)CC1`, the Ki was found to be 43 nM in data set [3] and 434 nM in [4].
For `COc1ccccc1N1CCN(CCCCCC(=O)Nc2cccc(C(C)C)c2)CC1` the same measures were 34 nM and 141 nM.
